These results are taken from ChEMBL document CHEMBL1151286, “Nostocarboline: isolation and synthesis of a new cholinesterase inhibitor from Nostoc 78-12A” (J Nat Prod, 2005).

In this assay the target is Cholinesterase (Equus caballus, UniProt P81908). In words: Inhibition of horse serum BChE by Ellman's reaction. On the technique in general: In Ellman's method for cholinesterases, released thiocholine reacts with DTNB.

Structures are written as SMILES. “And” between values parts separate entries of the source, which are not always exact repeats. Equal values may be shown once.

Chain of Cholinesterase (P81908 whole entry): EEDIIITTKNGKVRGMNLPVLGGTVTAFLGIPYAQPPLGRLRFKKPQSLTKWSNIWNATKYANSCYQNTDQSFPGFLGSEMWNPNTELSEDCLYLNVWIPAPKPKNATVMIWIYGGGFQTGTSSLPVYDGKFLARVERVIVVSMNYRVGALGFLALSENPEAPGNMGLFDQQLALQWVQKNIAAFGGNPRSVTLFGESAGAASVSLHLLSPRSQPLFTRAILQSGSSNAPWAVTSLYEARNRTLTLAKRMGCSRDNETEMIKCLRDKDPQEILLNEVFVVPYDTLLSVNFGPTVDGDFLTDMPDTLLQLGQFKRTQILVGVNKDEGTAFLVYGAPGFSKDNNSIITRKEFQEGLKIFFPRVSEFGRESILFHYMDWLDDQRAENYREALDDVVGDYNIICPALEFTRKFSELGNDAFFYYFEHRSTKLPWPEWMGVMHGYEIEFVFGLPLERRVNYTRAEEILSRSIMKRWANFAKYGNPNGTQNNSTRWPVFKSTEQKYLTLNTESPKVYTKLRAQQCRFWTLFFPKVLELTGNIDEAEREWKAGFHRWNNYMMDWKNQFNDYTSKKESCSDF

On to `C[n+]1ccc2c(c1)[nH]c1ccc(Cl)cc12` [NOSTOCARBOLINE], for which the IC50 (as a rule, the concentration that gives 50% inhibition) was 19.4 µM and 13.2 µM.
Compound `C[n+]1ccc2c(c1)[nH]c1ccccc12` gave a concentration for half-maximal inhibition (IC50) of 11.2 µM.
